Article PMC3266168 (Journal of Medicinal Chemistry, 2011)
Converted amounts (≈) assume the structure as drawn.

Experiments:
F. tularensis FabI = F. tularensis FabI (Francisella tularensis subsp. tularensis, UniProt Q5NGQ3); format: biochemical
F. tularensis = assay: microbe, parasite or virus in culture; format: cell-based; conditions: Francisella tularensis
[1] = system: E.coli TolC mutant (BW251113-TolC-); format: cell-based
E.coli (BW251113) = format: cell-based

Sequence of F. tularensis FabI (Q5NGQ3 1-260): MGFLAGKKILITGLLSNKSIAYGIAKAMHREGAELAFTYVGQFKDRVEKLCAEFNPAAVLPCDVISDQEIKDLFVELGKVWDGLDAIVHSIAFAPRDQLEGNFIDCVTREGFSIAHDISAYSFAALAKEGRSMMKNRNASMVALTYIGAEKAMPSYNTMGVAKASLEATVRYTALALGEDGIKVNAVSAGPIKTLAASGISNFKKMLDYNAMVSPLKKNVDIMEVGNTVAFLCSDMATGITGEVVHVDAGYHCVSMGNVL

Row | Structure (SMILES) | L.E. (Ligand Efficiency) (F. tularensis FabI) | fold increase in activity (IC50) over hit compound 2 (F. tularensis FabI) | MIC (F. tularensis) | MIC [1] | MIC (E.coli (BW251113))
1 | Nc1ncc(Cc2ccc(Cl)cc2)s1 [Compound 1] | 0.41 | – | – | – | –
2 | Clc1ccc(Cn2cnc3ccccc32)cc1 [Compound 2, 1-(4-chlorobenzyl) benzimidazole] | 0.37 | – | – | – | –
3 | Clc1ccc(Cn2cnc3ccccc32)cc1Cl [Compound 6] | – | ~10 fold | 15.6 µg/mL (≈ 56.3 µM) | – | –
4 | Cc1cc2ncn(Cc3ccc(Cl)c(Cl)c3)c2cc1C [Compound 9] | – | 100 fold | – | 6.25 (3) μg/mL | >200 (3) μg/mL
